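Each compound was tested at five concentrations against cells in 96-well plates for 48 hours. TGI denotes the concentration required for complete inhibition of growth.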
How the values were obtained:
Assay in all cases: inhibition of tumour cell growth, NCI panel, 48 h
[1] = test system: 786-0 renal
[2] = test system: A498 renal
[3] = test system: A549 NSCLC
[4] = test system: ACHN renal
[5] = test system: BT-549 breast
[6] = test system: CAKI-1 renal
[7] = test system: CCRF-CEM leukemia
[8] = test system: COLO 205 colon
[9] = test system: DU-145 prostate
[10] = test system: EKVX NSCLC
[11] = test system: HCT-116 colon
[12] = test system: HCT-15 colon
[13] = test system: HL-60(TB) leukemia
[14] = test system: HOP-62 NSCLC
[15] = test system: HOP-92 NSCLC
[16] = test system: HS 578T breast
[17] = test system: HT29 colon
[18] = test system: IGROV1 ovarian
[19] = test system: K-562 leukemia
[20] = test system: KM12 colon
[21] = test system: M14 melanoma
[22] = test system: MALME-3M melanoma
[23] = test system: MCF7 breast
[24] = test system: MDA-MB-231 breast
[25] = test system: MDA-MB-435
[26] = test system: MDA-N
[27] = test system: MOLT-4 leukemia
[28] = test system: NCI-H226 lung
[29] = test system: NCI-H23 lung
[30] = test system: NCI-H460 lung
[31] = test system: NCI-H522 lung
[32] = test system: NCI/ADR-RES ovarian
[33] = test system: OVCAR-3 ovarian
[34] = test system: OVCAR-4 ovarian
[35] = test system: OVCAR-5 ovarian
[36] = test system: OVCAR-8 ovarian
[37] = test system: PC-3 prostate
[38] = test system: RPMI-8226 leukemia
[39] = test system: RXF 393 renal
[40] = test system: SF-268 CNS
[41] = test system: SF-295 CNS
[42] = test system: SF-539 CNS
[43] = test system: SK-MEL-2 melanoma
[44] = test system: SK-MEL-28 melanoma
[45] = test system: SK-MEL-5 melanoma
[46] = test system: SK-OV-3 ovarian
[47] = test system: SN12C renal
[48] = test system: SNB-19 CNS
[49] = test system: SNB-75 CNS
[50] = test system: SR leukemia
[51] = test system: SW-620 colon
[52] = test system: T-47D breast
[53] = test system: U251 CNS
[54] = test system: UACC-257 melanoma
[55] = test system: UACC-62 melanoma
[56] = test system: UO-31 renal
[57] = test system: HCC-2998 colon
[58] = test system: LOX IMVI melanoma
[59] = test system: TK-10 renal

## Cc1cc2c(cc1-c1cc3c(cc1C)C(C(C)C)=C(O)C(=O)/C3=C\Nc1c(C)n(C)n(-c3ccccc3)c1=O)/C(=C/Nc1c(C)n(C)n(-c3ccccc3)c1=O)C(=O)C(O)=C2C(C)C
[1]
  TGI: > 100 µM
[2]
  TGI: > 100 µM
[3]
  TGI: > 100 µM
[4]
  TGI: > 100 µM
[5]
  TGI: > 100 µM
[6]
  TGI: > 100 µM
[7]
  TGI: > 100 µM
[8]
  TGI: > 100 µM
[9]
  TGI: > 100 µM
[10]
  TGI: > 100 µM
[11]
  TGI: > 100 µM
[12]
  TGI: > 100 µM
[13]
  TGI: > 100 µM
[14]
  TGI: > 100 µM
[15]
  TGI: > 100 µM
[16]
  TGI: > 100 µM
[17]
  TGI: > 100 µM
[18]
  TGI: > 100 µM
[19]
  TGI: > 100 µM
[20]
  TGI: > 100 µM
[21]
  TGI: > 100 µM
[22]
  TGI: > 100 µM
[23]
  TGI: > 100 µM
[24]
  TGI: > 100 µM
[25]
  TGI: > 100 µM
[26]
  TGI: > 100 µM
[27]
  TGI: > 100 µM
[28]
  TGI: > 100 µM
[29]
  TGI: > 100 µM
[30]
  TGI: > 100 µM
[31]
  TGI: > 100 µM
[32]
  TGI: > 100 µM
[33]
  TGI: > 100 µM
[34]
  TGI: > 100 µM
[35]
  TGI: > 100 µM
[36]
  TGI: > 100 µM
[37]
  TGI: > 100 µM
[38]
  TGI: > 100 µM
[39]
  TGI: > 100 µM
[40]
  TGI: > 100 µM
[41]
  TGI: > 100 µM
[42]
  TGI: > 100 µM
[43]
  TGI: > 100 µM
[44]
  TGI: > 100 µM
[45]
  TGI: > 100 µM
[46]
  TGI: > 100 µM
[47]
  TGI: > 100 µM
[48]
  TGI: > 100 µM
[49]
  TGI: > 100 µM
[50]
  TGI: > 100 µM
[51]
  TGI: > 100 µM
[52]
  TGI: > 100 µM
[53]
  TGI: > 100 µM
[54]
  TGI: > 100 µM
[55]
  TGI: > 100 µM
[56]
  TGI: > 100 µM

## O=C(CCc1ccc(O)c(O)c1)NCCc1ccc(O)c(O)c1
[1]
  TGI: 33.8 µM
[2]
  TGI: > 100 µM
[3]
  TGI: > 100 µM
[4]
  TGI: > 100 µM
[5]
  TGI: > 100 µM
[7]
  TGI: 78.3 µM
[8]
  TGI: > 100 µM
[9]
  TGI: > 100 µM
[10]
  TGI: > 100 µM
[57]
  TGI: > 100 µM
[11]
  TGI: > 100 µM
[12]
  TGI: > 100 µM
[13]
  TGI: > 100 µM
[14]
  TGI: > 100 µM
[15]
  TGI: > 100 µM
[16]
  TGI: > 100 µM
[17]
  TGI: > 100 µM
[18]
  TGI: > 100 µM
[19]
  TGI: > 100 µM
[20]
  TGI: > 100 µM
[58]
  TGI: > 100 µM
[21]
  TGI: > 100 µM
[22]
  TGI: > 100 µM
[23]
  TGI: 45.4 µM
[24]
  TGI: 73.9 µM
[25]
  TGI: 31.8 µM
[26]
  TGI: 33.9 µM
[27]
  TGI: > 100 µM
[28]
  TGI: > 100 µM
[29]
  TGI: > 100 µM
[30]
  TGI: > 100 µM
[31]
  TGI: > 100 µM
[32]
  TGI: > 100 µM
[33]
  TGI: > 100 µM
[34]
  TGI: 33.7 µM
[35]
  TGI: > 100 µM
[36]
  TGI: 32.4 µM
[37]
  TGI: > 100 µM
[38]
  TGI: > 100 µM
[39]
  TGI: > 100 µM
[40]
  TGI: > 100 µM
[41]
  TGI: > 100 µM
[42]
  TGI: > 100 µM
[43]
  TGI: > 100 µM
[44]
  TGI: > 100 µM
[45]
  TGI: > 100 µM
[46]
  TGI: > 100 µM
[47]
  TGI: > 100 µM
[48]
  TGI: > 100 µM
[49]
  TGI: > 100 µM
[50]
  TGI: 74.1 µM
[51]
  TGI: > 100 µM
[52]
  TGI: > 100 µM
[59]
  TGI: > 100 µM
[53]
  TGI: 31 µM
[54]
  TGI: > 100 µM
[55]
  TGI: > 100 µM
[56]
  TGI: > 100 µM

Reference: PubChem BioAssay (NCI)
